Reference: patent publication US7977352B2, “Triazolopyridine compounds useful for the treatment of degenerative and inflammatory diseases” (Galapagos NV, priority 2006, dated 2011)

Assays:
TAK1-TAB1 fusion protein = molecular target: T1, TAK1-TAB1 fusion protein (Homo sapiens, UniProt O43318); experiment: In vitro TAK1 kinase assay; format: biochemical; settings: casein substrate, [33P]-γ-ATP, 90 minutes at 30° C., semi-quantitative score, read-out: POTENCY TAK1 (MAP3K7)
T1 construct: purchased Upstate 14-600
T1 sequence (O43318 with tags, fused parts or gaps limits assumed): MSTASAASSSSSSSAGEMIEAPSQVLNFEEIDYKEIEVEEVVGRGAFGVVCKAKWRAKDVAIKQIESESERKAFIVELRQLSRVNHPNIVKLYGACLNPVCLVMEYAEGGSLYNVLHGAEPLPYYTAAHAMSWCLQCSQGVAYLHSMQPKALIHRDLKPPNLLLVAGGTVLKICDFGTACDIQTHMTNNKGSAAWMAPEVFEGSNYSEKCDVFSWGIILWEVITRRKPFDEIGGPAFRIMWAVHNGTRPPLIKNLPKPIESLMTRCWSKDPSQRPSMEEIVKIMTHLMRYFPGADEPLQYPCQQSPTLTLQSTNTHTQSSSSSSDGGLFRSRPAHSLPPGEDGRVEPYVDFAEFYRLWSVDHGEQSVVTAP
Description: For assessing TAK1 inhibition, active TAK1-TAB1 fusion protein was used from Upstate (Cat. No, 14-600). Kinase reactions are set up in 96-well polypropylene plates in 25 μL containing 0.5 mU TAK1-TAB1 fusion protein, 5mM ATP, 0.01 μCi/μL [^33P]-γ-ATP, 0.1 mg/mL casein substrate in 1× reaction buffer containing 10 mM MOPS pH 7.0, 1 mM EDTA.
Starting from the compound master stocks (all at 10 mM concentration in 100% DMSO) a 3-fold serial dilution is made in 96-well plates in 100% DMSO. Plates are further diluted […] in H2O containing 3.5% DMSO, to obtain an intermediate work stock with compounds at 5× the final assay concentration in 5% DMSO.
5 μL of the intermediate stock is transferred into V-bottom 96 well polypropylene plates and 11 μL of Enzyme mix is added. Enzyme mix is made by combining 5 μL 5× reaction buffer ([…] pH 7.0, 1 mM EDTA), 5 μL casein (Sigma) diluted in H20 to 0.5 mg/mL and 1 μL of TAK1-TAB1 fusion protein that was prediluted to 0.5 mU/μL in 1× enzyme dilution buffer (20 mM MOPS pH 7.0, 0.1 mM EDTA, 0.01% Brij-35, 5% glycerol, 1 mM DTT, 1 mg/ml BSA).
The reactions are started by the addition of 9 μL of mixture containing ATP (20.83 uM) and [^33P]-γ-ATP (0.028 μCi/μL).
The assay is stopped 90 minutes after incubation at 30° C. by the addition of 25 μL phosphoric acid (150 mM). The label incorporated into the casein substrate is separated from labeled unincorporated ATP by filtration onto 96-well filter plates using a harvester device. After 6 washes with 75 mM phosphoric acid, the bottom of the filter plates are sealed, and incorporated label is quantified after addition of 40 μL scintillation fluid using TopCount.

[1] = tested on: MMP1 expression by activated synovial fibroblasts (RASFs); experiment: MMP assay: MMP1 expression by RASFs triggered with TNF-α (MMP1 ELISA); format: cell-based; settings: Fibroblast, 48 h, TNF-α trigger 10 ng/mL, semi-quantitative score, read-out: REDUCTION MMP1/TNFa
Description: A 384-well format ELISA for measurement of MMP1 is developed. Various primary antibodies are tested, as well as various ELISA protocols. The following protocol is developed and validated to measure MMP1 levels in SF supernatant in 384 well plates: white Lumitrac 600 384 well plates (Greiner) are coated with 2 μg/mL anti-MMP1 antibody MAB1346 (Chemicon). The antibody is diluted in buffer 40 (1.21 g Tris base (Sigma), 0.58 g NaCl (Calbiochem) and 5 mL 10% NaN3 (Sigma) in 1 L milliQ water and adjusted to pH 8.5). After overnight incubation at 4° C., plates are washed with PBS (80 g NaCl, 2 g KCl (Sigma), 11.5 g Na2HPO4.7H2O and 2 g KH2PO4 in 10 L milliQ; pH 7.4) and blocked with 100 μL/well Casein buffer (2% Casein (VWR International) in PBS). Next day, casein buffer is removed from ELISA plates and replaced by 50 μL/well EC buffer (4 g casein, 2.13 g Na2HPO4 (Sigma), 2 g bovine albumin (Sigma), 0.69 g NaH2PO4.H2O (Sigma), 0.5 g CHAPS (Roche), 23.3 g NaCl, 4 mL 0.5 M EDTA pH 8 (Invitrogen), 5 mL 10% NaN3 in 1 L milliQ and adjusted to pH 7.0). 0.25 mM DTT (Sigma) is added to the thawed sample plates. After removal of the EC buffer, 20 μL of sample is transferred to the ELISA plates. After overnight incubation at 4° C. plates are washed twice with PBS and once with PBST (PBS with 0.05% Tween-20 (Sigma)) and incubated with 35 μL/well biotinylated anti-MMP1 antibody solution (R&D). This secondary antibody is diluted in buffer C (0.82 g NaH2PO4.H2O, 4.82 g Na2HPO4, 46.6 g NaCl, 20 g bovine albumin and 4 mL 0.5M EDTA pH 8 in 2 L milliQ and adjusted to pH 7.0) at a concentration of 5 μg/mL. After 2 h of incubation at RT, plates are washed as described above and incubated with 50 μL/well streptavidin-HRP conjugate (Biosource). Streptavidin-HRP conjugate is diluted in buffer C at a concentration of 0.25 μg/mL. After 45 min, plates are washed as described above and incubated for 5 min with 50 μL/well BM Chem ELISA Substrate (Roche). Readout is performed on the Luminoscan Ascent Luminometer (Labsystems) with an integration time of 200 msec or with an Envision reader (Perkin Elmer).
SFs were acquired at passage 1 from a commercial supplier (Cell applications, Inc.). SFs are cultured in DMEM supplemented with 10% heat-inactivated FBS, 1× penicillin/streptomycin (Invitrogen) at 37° C., 10% CO2 until passage 6. Aliquots of the cells are frozen and cryopreserved in liquid nitrogen. Starting from a cryopreserved aliquot, cells are further expanded by sub-culturing cells at 1/3 ratio every week. Cells between passage 10 and 12 are routinely used in compound testing according to following protocol.
Starting from the compound master stocks (all at 10 mM concentration in 100% DMSO) a 3-fold serial dilution is made in 96-well plates in 100% DMSO. Then, plates are further diluted 45-fold in M199 medium supplemented with 1% heat-inactivated FBS to obtain a intermediate work stock.
At day 1, RASFs are seeded in 96 well plates (flat bottom, tissue culture treated, Greiner) at a density of 3000 cells/well in complete synovial growth medium (Cell Applications). Day 5, the medium is completely removed from the cells, and replaced by 81 μL of M199 medium supplemented with 1% heat-inactivated FBS followed by addition of 10 μL compound out of the intermediate work stock. After an incubation period of 90 minutes, which allows the compounds to equilibrate and enter the cells, cells are stimulated with either TNF-α or ‘complex trigger’. TNF-α trigger is added in a volume of […] to obtain final concentration of 10 ng/mL. For that, TNF-α stock (PeproTech) at 10 μg/mL was diluted to 100 ng/mL TNF-a in M199 medium supplemented with 1% FBS. ‘Complex trigger’ mix is added in a volume of 20 μL to obtain a final concentration of 12.5%. For that, ‘complex trigger’ mix, is diluted to 80% with M199 medium supplemented with 1% FBS. […]

| SMILES | IC50 (TAK1-TAB1 fusion protein) | IC50 [1] |
| --- | --- | --- |
| COc1cc(-c2ccc(Nc3ccc(N4CCN(C5CCCCC5)CC4)cc3)c3ncnn23)ccn1 [Example 32, N-[4-(4-cyclohexylpiperazin-1-yl)phenyl]-5-(2-methoxypyridin-4-yl)[1,2,4]triazolo[1,5-a]pyridin-8-amine] | > 10 µM | 5 to 10 µM |
| c1nc2c(Nc3ccc(N4CCN(C5CCC5)CC4)cc3)ccc(-c3cn[nH]c3)n2n1 [Example 35, N-[4-(4-cyclobutylpiperazin-1-yl)phenyl]-5-(1H-pyrazol-4-yl)[1,2,4]triazolo[1,5-a]pyridin-8-amine] | < 0.5 µM | > 10 µM |
| COc1cc(-c2ccc(Nc3ccc(N4CCN(CCC(C)C)CC4)cc3)c3ncnn23)ccn1 [Example 29, 5-(2-methoxypyridin-4-yl)-N-{4-[4-(3-methylbutyl)piperazin-1-yl]phenyl}[1,2,4]triazolo[1,5-a]pyridin-8-amine] | > 10 µM | 1 to 5 µM |
| C[C@@H]1CN(c2ccc(Nc3ccc(-c4cc[nH]c(=O)c4)n4ncnc34)cc2F)C[C@H](C)N1C [Example 9, 4-[8-({3-fluoro-4-[(3R,5S)-3,4,5-trimethylpiperazin-1-yl]phenyl}amino)[1,2,4]triazolo[1,5-a]pyridin-5-yl]pyridin-2(1H)-one] | 0.501 to 1 µM | 1 to 5 µM |
| CCN1CCN(c2ccc(Nc3ccc(-c4ccnc(OC)c4)n4ncnc34)cc2)CC1 [Example 26, N-[4-(4-ethylpiperazin-1-yl)phenyl]-5-(2-methoxypyridin-4-yl)[1,2,4]triazolo[1,5-a]pyridin-8-amine] | > 10 µM | 1 to 5 µM |
| CCC(CC)N1CCN(c2ccc(Nc3ccc(-c4cn[nH]c4)n4ncnc34)cc2)CC1 [Example 34, N-{4-[4-(1-ethylpropyl)piperazin-1-yl]phenyl}-5-(1H-pyrazol-4-yl)[1,2,4]triazolo[1,5-a]pyridin-8-amine] | < 0.5 µM | 1 to 5 µM |
| C[C@@H]1CN(C)[C@@H](C)CN1c1ccc(Nc2ccc(-c3cc[nH]c(=O)c3)n3ncnc23)cc1F (relative stereo) [Example 11, rel-4-[8-({3-fluoro-4-[(2R,5S)-2,4,5-trimethylpiperazin-1-yl]phenyl}amino)[1,2,4]triazolo[1,5-a]pyridin-5-yl]pyridin-2(1H)-one] | < 0.5 µM | 1 to 5 µM |

Further lines, with some results ahead:

| IC50 (TAK1-TAB1 fusion protein) | SMILES | IC50 [1] |
| --- | --- | --- |
| > 10 µM | c1cc(-c2ccc(Nc3ccc(N4CCOCC4)cc3)c3ncnn23)c2cc[nH]c2c1 [Example 48, 5-(1H-indol-4-yl)-N-(4-morpholin-4-ylphenyl)[1,2,4]triazolo[1,5-a]pyridin-8-amine] | 1 to 5 µM |
| < 0.5 µM | CCCN1CCN(c2ccc(Nc3ccc(-c4ccc(C(N)=O)cc4)n4ncnc34)cc2)CC1 [Example 13, 4-(8-{[4-(4-propylpiperazin-1-yl)phenyl]amino}[1,2,4]triazolo[1,5-a]pyridin-5-yl)benzamide] | > 10 µM |
| < 0.5 µM | CCCN1CCN(c2ccc(Nc3ccc(-c4cc[nH]c(=O)c4)n4ncnc34)cc2)CC1 [Example 20, 4-(8-{[4-(4-propylpiperazin-1-yl)phenyl]amino}[1,2,4]triazolo[1,5-a]pyridin-5-yl)pyridin-2(1H)-one] | 1 to 5 µM |
| < 0.5 µM | CCN1CCN(c2ccc(Nc3ccc(-c4cc[nH]c(=O)c4)n4ncnc34)cc2)CC1 [Example 19, 4-(8-{[4-(4-ethylpiperazin-1-yl)phenyl]amino}[1,2,4]triazolo[1,5-a]pyridin-5-yl)pyridin-2(1H)-one] | 1 to 5 µM |
| < 0.5 µM | O=c1cc(-c2ccc(Nc3ccc(N4CCNCC4)cc3)c3ncnn23)cc[nH]1 [Example 33, 4-{8-[(4-piperazin-1-ylphenyl)amino][1,2,4]triazolo[1,5-a]pyridin-5-yl}pyridin-2(1H)-one] | 1 to 5 µM |
| > 10 µM | NC(=O)c1cc(-c2ccc(Nc3ccc(N4CCOCC4)cc3)c3ncnn23)ccc1F [Example 45, 2-fluoro-5-{8-[(4-morpholin-4-ylphenyl)amino][1,2,4]triazolo[1,5-a]pyridin-5-yl}benzamide] | > 10 µM |
| > 10 µM | CC(C)N1CCN(c2ccc(Nc3ccc(-c4ccc5[nH]ccc5c4)n4ncnc34)cc2)CC1 [Example 51, 5-(1H-indol-5-yl)-N-[4-(4-isopropylpiperazin-1-yl)phenyl][1,2,4]triazolo[1,5-a]pyridin-8-amine] | > 10 µM |
| < 0.5 µM | CC(C)CCN1CCN(c2ccc(Nc3ccc(-c4cc[nH]c(=O)c4)n4ncnc34)cc2)CC1 [Example 22, 4-[8-({4-[4-(3-methylbutyl)piperazin-1-yl]phenyl}amino)[1,2,4]triazolo[1,5-a]pyridin-5-yl]pyridin-2(1H)-one] | 1 to 5 µM |
| < 0.5 µM | CCN1CCN(c2ccc(Nc3ccc(-c4ccc(C(N)=O)cc4)n4ncnc34)cc2)CC1 [Example 12, 4-(8-{[4-(4-ethylpiperazin-1-yl)phenyl]amino}[1,2,4]triazolo[1,5-a]pyridin-5-yl)benzamide] | < 0.5 µM |
| > 10 µM | c1nc2c(Nc3ccc(N4CCOCC4)cc3)ccc(-c3ccc4cc[nH]c4c3)n2n1 [Example 52, 5-(1H-indol-6-yl)-N-(4-morpholin-4-ylphenyl)[1,2,4]triazolo[1,5-a]pyridin-8-amine] | > 10 µM |
